The source of these data is patent US8273754B2, “Substituted 1H-pyrazolo[3,4-D]pyrimidine-6-amine compounds” (ArQule, Inc., priority 2008, dated 2012).

Read-outs that look alike come from different tables or passages of the source.

One test concerns the target T1, FGFR2 (N549H) (Homo sapiens, UniProt P21802, N549H).
T1 construct: purchased Millipore 14-742
As to the kind of experiment: fluorescent ELISA assay for inhibitors of FGFR2 kinase. In kind it is biochemical. The settings on record: Pyk2 peptide substrate, 60 minutes. The procedure: The enzymatic assays described herein are conducted according to the following procedures from commercially available reagents. In one non-limiting example, a fluorescent ELISA assay is used to identify and characterize inhibitors of FGFR2 kinase as described herein. This heterogeneous assay utilizes a biotinylated peptide with a tyrosine motif as a substrate and an anti-phospho-tyrosine antibody to measure phosphorylation of the substrate. The reaction is initiated by adding the test compound, 37 μM Pyk2 substrate (Midwest Biotech, Cat. #MBT2383), 12.5 μM ATP (Roche, Cat. #11 140 965 001) and 0.5 μM FGFR2 enzyme (Millipore, Cat. #14-742) sequentially to a non-binding polypropylene V-well plate. All reagents are in an assay buffer consisting of: 50 mM Tris-HCL, 0.02 mg/ml BSA, 10 mM MgCl2, 0.1 mM Na3VO4, 1 mM EGTA, 75 μM ATP, 0.01% NP-40, 2 mM DTT and 10% glycerol. The reaction is incubated for 60 minutes. As the reaction proceeds, FGFR2 phosphorylates tyrosines in the peptide. The reaction mixture is then moved to a blocked streptavidin-coated Nunc Maxisorb plate (coated with 100 ng streptavidin from Pierce (Cat. #15-124) per well), allowing for the capture of the biotinylated peptide. Peptides are captured for 30 minutes at room temperature, the phosphorylation of peptides continues during this phase. The reaction is stopped by washing the streptavidin-coated plate 6 times with TBST. Phosphorylated peptide is detected by adding anti-phospho-tyrosine antibody (Cell Signaling, Cat. #9411, diluted 1:3000) to the streptavidin-coated plate. Unbound anti-phospho-tyrosine antibody is removed by washing the streptavidin-coated plate 6 times with TBST. Secondary detection is performed using alkaline phosphatase tagged goat anti-mouse antibody (Pierce, Cat. #31320, diluted 1:4000) for one hour. Unbound secondary antibody is removed by washing the streptavidin-coated plate 6 times with TBST. The fluorescent readout is initiated by adding to the streptavidin-coated plate Promega Attophos substrate (Promega, Cat. #S1000, dilution=6 mg/10 ml), which, when dephosphorylated by alkaline phosphatase, emits a fluorescent signal of 595 nm in wavelength when excited by a signal of 400 nm in wavelength. The reading of the 595 nm signal is done on the Perkin Elmer Envision system. Compounds which prevent FGFR2 from phosphorylating the peptide result in a lower fluorescent signal. The 595 nm fluorescent signal is directly proportional to the activity of FGFR2. Thus, the inhibition of FGFR2 by compounds is monitored by the decrease in the 595 nm fluorescent signal.
(In general: An ELISA detects its analyte on a solid surface through an enzyme-linked reagent.)

The subject of a further test is cancer cells. Briefly: MTS cell growth inhibition assay (72 hours). In kind it is cell-based. The procedure, abridged: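 Growth inhibition read as formazan absorbance at 492 nm after 4 h MTS/PMS, following 72 h compound exposure at 37 °C in 1% FBS DMEM (cells pre-seeded 18 h). IC50 = 50% absorbance reduction; inhibition graded in bands.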
[1] abbreviates: Homo sapiens, DLD-1, 72 h, DLD-1 cells, read-out: DLD-1 MTS 72 hr at 10 μM.
Setting [2] is: Homo sapiens, KATO III, 72 h, KATO III cells, read-out: KATO III MTS 72 hr at 10 μM.
The mark [3] stands for this setting: Homo sapiens, MDA-MB-231, 72 h, MDA-MB-231 cells, read-out: MDA-MB-231 MTS 72 hr at 10 μM.
[4] abbreviates: Homo sapiens, NCI-H1299, 72 h, NCI-H1299 cells, read-out: NCI-H1299 MTS 72 hr at 10 μM.
The mark [5] stands for this setting: PaCa-2, 72 h, PACA-2 cells, read-out: PACA-2 MTS 72 hr at 10 μM.

T1 sequence (P21802 22-821 N549H): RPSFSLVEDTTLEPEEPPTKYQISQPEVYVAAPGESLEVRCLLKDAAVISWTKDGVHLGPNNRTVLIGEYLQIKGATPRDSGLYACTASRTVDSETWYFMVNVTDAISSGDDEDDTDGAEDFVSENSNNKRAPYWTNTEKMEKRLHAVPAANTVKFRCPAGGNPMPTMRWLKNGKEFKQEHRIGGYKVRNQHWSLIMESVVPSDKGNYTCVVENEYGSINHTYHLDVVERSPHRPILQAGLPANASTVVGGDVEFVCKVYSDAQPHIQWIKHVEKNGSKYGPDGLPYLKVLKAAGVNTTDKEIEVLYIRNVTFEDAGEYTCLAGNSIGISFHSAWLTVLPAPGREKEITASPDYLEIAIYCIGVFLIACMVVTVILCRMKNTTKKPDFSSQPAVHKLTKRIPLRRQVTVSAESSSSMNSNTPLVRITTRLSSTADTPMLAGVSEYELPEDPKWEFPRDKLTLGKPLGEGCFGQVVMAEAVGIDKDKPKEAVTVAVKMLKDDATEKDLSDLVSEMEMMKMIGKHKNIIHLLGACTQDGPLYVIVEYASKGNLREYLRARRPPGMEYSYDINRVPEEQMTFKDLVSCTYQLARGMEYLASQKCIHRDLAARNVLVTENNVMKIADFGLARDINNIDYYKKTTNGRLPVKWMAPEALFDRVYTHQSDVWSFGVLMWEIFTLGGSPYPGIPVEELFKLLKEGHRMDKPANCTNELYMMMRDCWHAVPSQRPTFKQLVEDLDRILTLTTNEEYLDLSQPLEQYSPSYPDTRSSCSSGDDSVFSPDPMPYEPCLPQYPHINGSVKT

For the molecule `Nc1nc(NC2Cc3ccccc3N(CCc3ccc(Cl)cc3Cl)C2)c2cn[nH]c2n1` (stereo not shown) [Compound 3, N^4-(1-(2-(2,4-dichlorophenyl)ethyl)-1,2,3,4-tetrahydroquinolin-3-yl)-1H-pyrazolo[3,4-d]pyrimidine-4,6-diamine], half-maximal inhibition at FGFR2 (N549H) (IC50) was put at 7.83 µM. Also, the inhibition at 10 µM in the test on cancer cells (setting [1]), in the test with cancer cells (setting [2]), in the test on cancer cells (setting [3]), with cancer cells (setting [4]) and in the test with cancer cells (setting [5]) was more than 79% throughout.
With `Nc1nc(NC2Cc3ccccc3N(Cc3ccc(F)cc3)C2)c2cn[nH]c2n1` (stereo not shown) [Compound 6, N^4-(1-(4-fluorobenzyl)-1,2,3,4-tetrahydroquinolin-3-yl)-1H-pyrazolo[3,4-d]pyrimidine-4,6-diamine], half-maximal inhibition on FGFR2 (N549H) (IC50) was put at 0.9 µM. Also, the inhibition at 10 µM in the test on cancer cells (setting [1]), in the test on cancer cells (setting [2]), in the test with cancer cells (setting [3]), in the test with cancer cells (setting [4]) and in the test on cancer cells (setting [5]) was more than 79% in each case.
The molecule `Nc1nc(NC2Cc3ccccc3N(Cc3ccc(Cl)c(Cl)c3)C2)c2cn[nH]c2n1` (stereo not shown) [Compound 7, N^4-(1-(3,4-dichlorobenzyl)-1,2,3,4-tetrahydroquinolin-3-yl)-1H-pyrazolo[3,4-d]pyrimidine-4,6-diamine] displayed an IC50 against FGFR2 (N549H) of 3.97 µM. Besides, the inhibition at 10 µM in the test with cancer cells (setting [1]), in the test with cancer cells (setting [2]), with cancer cells (setting [3]), in the test with cancer cells (setting [4]) and in the test with cancer cells (setting [5]) was more than 79% throughout.
Regarding `CN(c1nc(N)nc2[nH]ncc12)C1Cc2ccccc2N(Cc2ccc(Cl)c(Cl)c2)C1` (stereo not shown) [Compound 10, N^4-(1-(3,4-dichlorobenzyl)-1,2,3,4-tetrahydroquinolin-3-yl)-N^4-methyl-1H-pyrazolo[3,4-d]pyrimidine-4,6-diamine], on FGFR2 (N549H), the IC50 is 1.55 µM. Besides, the inhibition at 10 µM was less than 50% in the test with cancer cells (setting [1]); 50 to 79% in the test on cancer cells (setting [2]); less than 50% with cancer cells (setting [3]); less than 50% in the test with cancer cells (setting [4]); less than 50% in the test on cancer cells (setting [5]).
With `Cc1noc(C)c1S(=O)(=O)N1CC(Nc2nc(N)nc3[nH]ncc23)Cc2ccccc21` (stereo not shown) [Compound 15, N4-(1-(3,5-dimethylisoxazol-4-ylsulfonyl)-1,2,3,4-tetrahydroquinolin-3-yl)-1H-pyrazolo[3,4-d]pyrimidine-4,6-diamine], the IC50 on FGFR2 (N549H) is more than 30 µM. The inhibition at 10 µM in the test with cancer cells (setting [1]), with cancer cells (setting [2]), in the test with cancer cells (setting [3]), in the test on cancer cells (setting [4]) and in the test on cancer cells (setting [5]) was more than 79% in each case.
At FGFR2 (N549H), `Nc1nc(NC2Cc3ccccc3N(S(=O)(=O)c3cccc4nsnc34)C2)c2cn[nH]c2n1` (stereo not shown) [Compound 17, N4-(1-(benzo[c][1,2,5]thiadiazol-4-ylsulfonyl)-1,2,3,4-tetrahydroquinolin-3-yl)-1H-pyrazolo[3,4-d]pyrimidine-4,6-diamine] showed an IC50 of 15.3 µM. Further, the inhibition at 10 µM in the test with cancer cells (setting [1]), in the test on cancer cells (setting [2]), with cancer cells (setting [3]), in the test on cancer cells (setting [4]) and in the test with cancer cells (setting [5]) was less than 50% each time.
Turning to `Nc1nc(NC2Cc3ccccc3N(S(=O)(=O)c3cccc(F)c3)C2)c2cn[nH]c2n1` (stereo not shown) [Compound 18, N4-(1-(3-fluorophenylsulfonyl)-1,2,3,4-tetrahydroquinolin-3-yl)-1H-pyrazolo[3,4-d]pyrimidine-4,6-diamine], at FGFR2 (N549H), 0.37 µM corresponded to half-maximal inhibition (IC50). The inhibition at 10 µM with cancer cells (setting [1]), with cancer cells (setting [2]), in the test on cancer cells (setting [3]), in the test on cancer cells (setting [4]) and with cancer cells (setting [5]) was less than 50% throughout.
On FGFR2 (N549H), `Nc1nc(NC2Cc3ccccc3N(Cc3ccc(F)c(F)c3)C2)c2cn[nH]c2n1` (stereo not shown) [Compound 124, N4-[1-(3,4-difluorobenzyl)-1,2,3,4-tetrahydroquinolin-3-yl]-1H-pyrazolo[3,4-d]pyrimidine-4,6-diamine] showed a 50% inhibitory concentration (IC50) of 1.33 µM.
Take `Cc1ccc(Cl)c(NC(=O)Nc2cccc(S(=O)(=O)N3CC(Nc4nc(N)nc5[nH]ncc45)Cc4ccccc43)c2)c1` (stereo not shown) [Compound 218, 1-[3-({3-[(6-amino-1H-pyrazolo[3,4-d]pyrimidin-4-yl)amino]-3,4-dihydroquinolin-1(2H)-yl}sulfonyl)phenyl]-3-(2-chloro-5-methylphenyl)urea]: the inhibition at 10 µM in the test with cancer cells (setting [1]), with cancer cells (setting [2]), in the test with cancer cells (setting [3]), with cancer cells (setting [4]) and with cancer cells (setting [5]) was more than 79% throughout.
As for `Nc1nc(NC2Cc3ccccc3N(S(=O)(=O)c3cccc(NC(=O)Nc4cccc(F)c4)c3)C2)c2cn[nH]c2n1` (stereo not shown) [Compound 219, 1-[3-({3-[(6-amino-1H-pyrazolo[3,4-d]pyrimidin-4-yl)amino]-3,4-dihydroquinolin-1(2H)-yl}sulfonyl)phenyl]-3-(3-fluorophenyl)urea], the inhibition at 10 µM in the test with cancer cells (setting [1]), in the test on cancer cells (setting [2]), with cancer cells (setting [3]), in the test with cancer cells (setting [4]) and with cancer cells (setting [5]) was more than 79% in each case.
As for `Nc1nc(NC2Cc3ccccc3N(S(=O)(=O)c3cccc(NC(=O)Nc4cc(C(F)(F)F)ccc4F)c3)C2)c2cn[nH]c2n1` (stereo not shown) [Compound 220, 1-[3-({3-[(6-amino-1H-pyrazolo[3,4-d]pyrimidin-4-yl)amino]-3,4-dihydroquinolin-1(2H)-yl}sulfonyl)phenyl]-3-[2-fluoro-5-(trifluoromethyl)phenyl]urea], the inhibition at 10 µM with cancer cells (setting [1]), in the test with cancer cells (setting [2]), with cancer cells (setting [3]), in the test with cancer cells (setting [4]) and with cancer cells (setting [5]) was more than 79% throughout.
Take `Nc1nc(NC2Cc3ccccc3N(S(=O)(=O)c3cccc(NC(=O)Nc4cccc(Cl)c4F)c3)C2)c2cn[nH]c2n1` (stereo not shown) [Compound 221, 1-[3-({3-[(6-amino-1H-pyrazolo[3,4-d]pyrimidin-4-yl)amino]-3,4-dihydroquinolin-1(2H)-yl}sulfonyl)phenyl]-3-(3-chloro-2-fluorophenyl)urea]: the inhibition at 10 µM with cancer cells (setting [1]), in the test on cancer cells (setting [2]), in the test with cancer cells (setting [3]), in the test with cancer cells (setting [4]) and in the test with cancer cells (setting [5]) was more than 79% throughout.
In the case of `Nc1nc(NC2Cc3ccccc3N(S(=O)(=O)c3cccc(NC(=O)Nc4ccc(Cl)c(C(F)(F)F)c4)c3)C2)c2cn[nH]c2n1` (stereo not shown) [Compound 223, 1-(3-(3-(6-amino-1H-pyrazolo[3,4-d]pyrimidin-4-ylamino)-3,4-dihydroquinolin-1(2H)-ylsulfonyl)phenyl)-3-(4-chloro-3-(trifluromethyl)phenyl)urea], the inhibition at 10 µM with cancer cells (setting [1]), in the test with cancer cells (setting [2]), with cancer cells (setting [3]), in the test with cancer cells (setting [4]) and in the test on cancer cells (setting [5]) was more than 79% throughout.
Regarding `Nc1nc(NC2Cc3ccccc3N(S(=O)(=O)c3ccc(NC(=O)Nc4ccccc4)cc3)C2)c2cn[nH]c2n1` (stereo not shown) [Compound 225, 1-(4-(3-(6-amino-1H-pyrazolo[3,4-d]pyrimidin-4-ylamino)-3,4-dihydroquinolin-1(2H)-ylsulfonyl)phenyl)-3-phenylurea], the inhibition at 10 µM in the test on cancer cells (setting [1]), with cancer cells (setting [2]), with cancer cells (setting [3]), with cancer cells (setting [4]) and in the test with cancer cells (setting [5]) was more than 79% throughout.

Broadly, the IC50 is the concentration that gives 50% inhibition. Low values mean higher potency, high ones lower potency.
